Values quoted from earlier work as cited in patent US9981058B2, “Balloon surface coating” (CARDIONOVUM Sp.z.o.o., priority 2011, dated 2018).
Read-outs that look alike come from different tables or passages of the source.

Solubility (in dimethyl sulfoxide (DMSO), methanol and anhydrous ethanol): highly soluble
Solubility (in water): comparatively poorly soluble
Compound: CC(=O)O[C@H]1C(=O)[C@@]2(C)[C@H]([C@H](OC(=O)c3ccccc3)[C@]3(O)C[C@H](OC(=O)[C@H](O)[C@@H](NC(=O)c4ccccc4)c4ccccc4)C(C)=C1C3(C)C)[C@]1(OC(C)=O)CO[C@@H]1C[C@@H]2O (relative stereo) [Paclitaxel, [2aR-[2a,4,4a,6,9(R*,S*),11, 12,12a,12b]]-(benzoylamino)-hydroxybenzene propionic acid 6,12b-bis-(acetyloxy)-12-(benzoyloxy)-2a-3,4,4a,5,6,9, 10, 11, 12, 12a,12b-dodecahydro-4, 11-dihydroxy-4a,8,13,13-tetramethyl-5-oxo-7,11-methano-1H-cyclodeca[3,4]benz[1,2-b]oxet-9-yl ester)]
